The text below walks through data of patent publication US20070259933A1, “COMPOSITIONS, DOSAGE FORMS AND METHODS OF TREATING EMESIS” (XenoPort, Inc., priority 2006, published 2007).

Like-named read-outs stand apart in the source and are kept apart here.

Series [1] is described as follows: Regional gastrointestinal absorption of propofol prodrug. The series is classed as in vivo. The following applies: oral; colon vs upper gastrointestinal tract.
For series [2] the following is noted: cited from earlier work.
For series [3], the system named is sedation / general anesthesia. The following applies: in vivo; cited from earlier work.
The conditions of series [4]: orally administered propofol; dose-normalized oral vs intravenous; cited from earlier work.
The conditions of series [5]: oral dosing, rats; cited from earlier work.
[6] abbreviates: oral dose of 25-200 mg dolasetron.
The mark [7] stands for this setting: oral dose of 5-20 mg granisetron.

Consider `CC(C)c1cccc(C(C)C)c1OC(=O)OC[C@H](N)C(=O)O` [(S)-2-amino-3-(2,6-diisopropylphenoxycarbonyloxy)-propanoic acid], for which, in series [1], the gastrointestinal absorption entry is “limited colonic absorption”.
Regarding `O=C(O[C@@H]1C[C@@H]2C[C@H]3C[C@H](C1)N2CC3=O)c1c[nH]c2ccccc12` [dolasetron], in series [2] (setting [6]), the AUC entry was “about 1,233 ng·mL·h^−1”, the oral bioavailability was 70-89% and the terminal elimination half-life is 5 to 10 h.
As to `CN1C2CCCC1CC(NC(=O)c1nn(C)c3ccccc13)C2` (stereo not shown) [granisetron], in series [2] (setting [7]), the AUC is 83 to 350 ng·mL/h, the maximum plasma concentration was 14 to 68 ng/mL and the terminal elimination half-life is 1.5 to 5.7 h.
Turning to `Cc1nccn1CC1CCc2c(c3ccccc3n2C)C1=O` (stereo not shown) [ondansetron], in series [2] (oral dose of 8 mg ondansetron), the AUC is 101 to 351 ng·mL/h, the maximum plasma concentration is 20 to 52 ng/mL, the oral bioavailability is given as 48-75% and the terminal elimination half-life is 2.5 to 6.2 h.
In the case of `CC(C)c1cccc(C(C)C)c1O` [propofol, 2,6-diisopropylphenol], in series [3], the “propofol plasma concentrations needed for sedation” value is 1,500-2,000 ng/mL and the “propofol plasma concentrations needed for the maintenance of general anesthesia” value is given as 3,000-10,000 ng/mL. Also, in series [4], the absolute oral bioavailability result was “less than 2%”. Further, the “fraction of administered drug undergoing first pass metabolism” value in series [5] is recorded as “approximately 90%”.
For the compound `CN1[C@@H]2CC[C@H]1C[C@@H](OC(=O)c1c[nH]c3ccccc13)C2` [tropisetron], in series [2] (oral dose of 5 mg tropisetron), the AUC result is given as “about 230 ng·mL·h^−1”, the maximum plasma concentration result is “about 22 ng/mL”, the oral bioavailability is given as 60-99% and the terminal elimination half-life is reported as 8.6 h.
